Reference: the supplement of paper PMC9386025

Experiments:
Assay in all cases: drug sensitivity score (DSS) (DSS (dimensionless)); higher = more sensitive (stronger drug response)
FIMM-PDC1 = patient-derived ovarian cancer cells; conditions: genetic perturbation: none (patient-derived cell culture)
In short: (§1)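 Cells, either patient-derived cultures or ovarian cancer cell lines given 100 ng/ml doxycycline for no less than three days to induce shRNA, went into 384-well plates at 1 000 – 1 500 per well over drugs pre-plated in five concentrations across a 10,000-fold range. The plates were held for three days at 37 °C with 5.0 % CO2. Cell viability was then taken from CellTiter-Glo luminescence on a PHERAstar FS. For each drug, a drug sensitivity score from its dose-response curve was obtained by a method described earlier.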

FIMM-PDC3 = patient-derived ovarian cancer cells; conditions: genetic perturbation: none (patient-derived cell culture)
In short: as §1

FIMM-PDC4 = patient-derived ovarian cancer cells; conditions: genetic perturbation: none (patient-derived cell culture)
In short: as §1

FIMM-PDC5 = patient-derived ovarian cancer cells; conditions: genetic perturbation: none (patient-derived cell culture)
In short: as §1

FIMM-PDC6 = patient-derived ovarian cancer cells; conditions: genetic perturbation: none (patient-derived cell culture)
In short: as §1

FIMM-PDC7 = patient-derived ovarian cancer cells; conditions: genetic perturbation: none (patient-derived cell culture)
In short: as §1

JHOS2 = tested on: JHOS2
In short: as §1

Kuramochi = tested on: Kuramochi
In short: as §1

OVSAHO = tested on: OVSAHO
In short: as §1

[1] = genetic perturbation: DOX-induced PTK7 shRNA knockdown
[2] = genetic perturbation: DOX-induced control shRNA

Row | Structure (SMILES) | drug sensitivity score (FIMM-PDC1) | drug sensitivity score (FIMM-PDC3) | drug sensitivity score (FIMM-PDC4) | drug sensitivity score (FIMM-PDC5) | drug sensitivity score (FIMM-PDC6) | drug sensitivity score (FIMM-PDC7) | drug sensitivity score (JHOS2; [1]) | drug sensitivity score (JHOS2; [2]) | drug sensitivity score (Kuramochi; [1]) | drug sensitivity score (Kuramochi; [2]) | drug sensitivity score (OVSAHO; [1]) | drug sensitivity score (OVSAHO; [2])
1 | O=C(O)C1(C(=O)O)CCC1.[NH2-].[NH2-].[Pt+2] [Carboplatin] | 2.55 | 16.2 | 3.2 | 3.8 | 2.8 | 2.4 | 7.6 | 5.3 | 4.4 | 4.7 | 8.7 | 2.7
2 | CC(C)C[C@H](NC(=O)[C@H](CCc1ccccc1)NC(=O)CN1CCOCC1)C(=O)N[C@@H](Cc1ccccc1)C(=O)N[C@@H](CC(C)C)C(=O)[C@@]1(C)CO1 [Carfilzomib] | 26.6 | 28.3 | 22.2 | 23.6 | 29.3 | 26.1 | 25.2 | 23.7 | 21.9 | 25 | 24.9 | 20.5
3 | CCS(=O)(=O)N1CCN(c2ccc(Nc3ncc(C(N)=O)c(NC4CC4)n3)cc2)CC1 [Cerdulatinib] | < 0 | < 0 | < 0 | < 0 | < 0 | 5.3 | 8.2 | < 0 | < 0 | < 0 | < 0 | < 0
4 | CC(C)[C@H]1C(=O)N[C@@H](CCCNC(=N)N)C(=O)NCC(=O)N[C@@H](CC(=O)O)C(=O)N[C@H](Cc2ccccc2)C(=O)N1C [Cilengitide] | 0.75 | < 0 | < 0 | < 0 | < 0 | 1.3 | 5 | 0.9 | 8.65 | 3 | 9.6 | 6.1
5 | N.N.[Cl][Pt][Cl] [Cisplatin] | 4.8 | 18.9 | 5.7 | 5.4 | 9.8 | 4.7 | 14.9 | 4.1 | 14.2 | 7 | 17.6 | 5.1
6 | Nc1nc(Cl)nc2c1ncn2[C@@H]1O[C@H](CO)[C@@H](O)[C@@H]1F [Clofarabine] | 3.15 | 6.1 | 7.4 | 13.6 | 3.2 | 3.2 | 15.1 | 10.3 | < 0 | < 0 | 2.5 | 3.4
7 | CCN(CC)CCOc1ccc(C(=C(Cl)c2ccccc2)c2ccccc2)cc1 [Clomifene] | 7.05 | 5.7 | 7.5 | 8 | 5.2 | 7 | 6.9 | 4.1 | 5.45 | 2 | 5.2 | 4.2
8 | O=C(c1ccc(F)c(F)c1Nc1ccc(I)cc1F)N1CC(O)([C@@H]2CCCCN2)C1 [Cobimetinib] | < 0 | 4.8 | 12.4 | 12.7 | 12 | 7.4 | 0.8 | 11.1 | 6.05 | 2.8 | 9 | 3.9
